Reference: publication PMC3259047 (Molecular Neurodegeneration, 2011)
Where two headings read alike, the source gives them in different places.

Experiments:
[1] = Octanol-water partition coefficient (logPoct) by fluorometry; assay type: physicochemical; conditions: n-octanol/distilled water, 100 μM, room temperature, mean ± S.E.M, three independent experiments
Description: Octanol-water partition coefficients (logPoct) were determined as described previously with modification. […] The samples were incubated at room temperature with a brief vortex every 5 min for 60 minutes. After centrifugation at 2,000 g for 10 min, octanol and water layers were separately transferred to microcentrifuge tubes. Concentrations were determined by fluorometry at an excitation wave length of 530/25 nm and an emission wave length of 590/30 nm using an ELISA reader (Biotek, Winooski, VT).

[2] = target: CAA deposits (cerebrovascular Aβ aggregates) (Homo sapiens, UniProt P05067); assay: In situ saturation binding assay in fixed Tg2576 brain sections, fluorescence on CAA; design: species or system Tg2576 mice; conditions: 16 month-old Tg2576 fixed brain sections, intrinsic fluorescence, 30 min room temperature; read-out: Amyloid binding affinity (KD) on CAA (converted)
Description: (§1) Figure 5 In situ binding assay in Tg2576 brain sections. Sixteen month-old Tg2576 mice were perfused with PBS and brains were post-fixed in 4% paraformaldehyde. Coronal brain sections (40 μm thick) were washed three times with PBS and incubated with various concentrations of test compounds (4 sections/concentration; 6 concentrations/compound) at room temperature for 30 min. Brain sections were washed twice with PBS and 50% ethanol in PBS then cover-slipped. […] Scale bar: 100 μm. Fluorescent images of the sensorimotor cortex were taken and the fluorescent intensity on CAA (B) and neuritic plaques (C) was quantified. Saturation binding curves were plotted to obtain the binding affinity (KD) values (see Table 2).

neuritic plaques = target: T1, neuritic plaques (Homo sapiens, UniProt P05067); assay: In situ saturation binding assay in fixed Tg2576 brain sections, fluorescence on neuritic plaques; design: species or system Tg2576 mice; conditions: 16 month-old Tg2576 fixed brain sections, intrinsic fluorescence, 30 min room temperature; read-out: Amyloid binding affinity (KD) on neuritic plaques
T1 construct: Aβ1-42 (the predominant species in neuritic plaques); from tissue; host or cells: brain of 16-month-old Tg2576 transgenic mice
Description: as §1

[3] = system: cerebrovascular Aβ deposits and neuritic plaques; assay: Fluorescent staining of fixed aged Tg2576 brain sections; assay type: binding; conditions: fixed brain sections of aged Tg2576 mice; 1 μM resorufin, 2 μM methoxy-X34
Description: Scale bars in A-D: 100 μm.
Tg2576 and littermate wild-type mice at 12-16 months of age were anesthetized with isoflurane and transcardially perfused with PBS. Brains were removed, post-fixed overnight in 4% paraformaldehyde in 0.1 M phosphate buffer (pH 7.4) at 4°C, and preserved in 30% sucrose in 0.1 M phosphate buffer at 4°C. Brains were sectioned coronally (40 μm) on a freezing sliding microtome as described previously. […] Brain sections were washed three times with PBS and once with 50% ethanol in PBS for 5 min each. After three more PBS washes, brain sections were mounted on a slide glass and cover-slipped with Vectashield mounting media (Vector laboratories, Burlingame, CA). Fluorescent staining was visualized using a Nikon Eclipse ME600 digital video microscopy system (Nikon Instruments Inc., Melville, NY) and MetaMorph imaging software (Molecular Devices, Sunnyvale, CA). Cross-sectional area covered by CAA vessels and parenchymal plaques were quantified using ImageJ software (National Institutes of Health, Bethesda, MD) as previously described.

[4] = design: method as in Klunk et. al. [51]; conditions: ref Klunk et. al. [51]; cited from earlier work
[5] = system: CAA amyloid deposits and neuritic plaques; assay: In vivo live imaging through closed cranial window in aged Tg2576 mice; conditions: 6 mg/kg i.p. per legend and methods
[6] = system: 3D6-positive cerebral arterioles and neuritic plaques; assay: Fluorescent staining of paraffin-embedded human AD brain sections (3D6 co-labeling); assay type: binding; conditions: human AD cortical sections, 1 μM resorufin

Chain of CAA deposits (cerebrovascular Aβ aggregates) (P05067 672-711 limits assumed): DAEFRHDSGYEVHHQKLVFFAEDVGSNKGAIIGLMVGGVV
T1 sequence (P05067 672-713 limits assumed): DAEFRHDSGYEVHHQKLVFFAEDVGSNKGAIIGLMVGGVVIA

CCOc1ccc2nc3ccc(=O)cc-3oc2c1 [Ethoxyresorufin, ethoxy-resorufin]
logP [1]: 1.94 ± 0.137 | logPoct [1]: 1.94 | Kd [2]: 247 ± 135 nM | Kd (neuritic plaques): > 10000 nM | Binding to CAA-laden vessels versus neuritic plaques (fluorescent staining) [3]: preferentially bound CAA-laden vessels but not neuritic plaques

O=c1ccc2nc3ccc(OCc4ccccc4)cc3oc-2c1 [Benzyloxyresorufin, benzyloxy-resorufin]
logPoct [1]: 2.206 ± 0.104 | logPoct ([1]; listed as benzyloxy-resorufin): 2.21 | Kd [2]: 473 ± 82 nM | Kd (neuritic plaques): > 10000 nM | Binding to CAA-laden vessels versus neuritic plaques (fluorescent staining) [3]: preferentially bound CAA-laden vessels but not neuritic plaques

COc1cc(C=Cc2ccc(O)c(C(=O)O)c2)ccc1C=Cc1ccc(O)c(C(=O)O)c1 [Methoxy-X34, reference compound]
Kd [2]: 325 nM | Kd (neuritic plaques): 219 nM | Binding to CAA-laden vessels versus neuritic plaques (fluorescent staining) [3]: visualized both cerebrovascular Aβ deposits and neuritic plaques | logPoct [4]: 0.19

COc1cc(/C=C/c2ccc(O)cc2)ccc1/C=C/c1ccc(O)cc1 [methoxy-X04]
Live fluorescent labeling of amyloid deposits by methoxy-X04 [5]: labeled Aβ aggregates in both cerebral arteries and parenchymal neuritic plaques

O=c1ccc2nc3ccc(O)cc3oc-2c1 [Resorufin, 7-hydroxy-3H-phenoxazin-3-one]
logP [1]: 0.427 ± 0.036 | logPoct [1]: 0.43 | Binding to CAA-laden vessels versus neuritic plaques (fluorescent staining) [3]: strongly bind CAA-laden cerebral arterioles but not parenchymal neuritic plaques | Staining of 3D6-positive amyloid deposits [6]: marked resorufin-positive staining was noted in the 3D6-positive cerebral arterioles | Visualization of CAA deposits after intravenous administration (CAA deposits; i.v. up to 50 mg/kg, aged Tg2576 mice (15 mo)): failed to visualize CAA deposits | Crossing of the BBB (CAA deposits; mouse, in vivo): failed to cross the BBB
